# Where a name gives a salt, the structure may show the parent alone. Read-outs that look alike come from different tables or passages of the source.
# Key:
# [1] = biological target: T1, Recombinant Human ENPP-1 Protein (Homo sapiens (Human), UniProt P22413); experiment: ENPP1 Assay (TMP); format: biochemical
# Experimental: Assay Buffer: 1 mM CaCl2, 0.2 mM ZnCl2, 50 mM Tris, pH 9.0
# Enzyme: 1 ng/μL Recombinant Human ENPP-1 Protein (purified in-house)—Assay Cone.: 5 ng/well
# A ten point serial dilution of drugs was prepared in 10× in assay buffer with the final assay concentrations starting at 10 μM, 3 μM, 1 μM, 0.3 μM . . . 0 μM. A dilution of DMSO was included as a control. The assay plate was set up as follows with each well in duplicate: 75 μL assay buffer+10 μL ENPP1 inhibitor or DMSO Dilutions+10 μL Substrate+5 μL Enzyme (5 ng). Both the enzyme and substrate were added to opposite sides of the well to ensure that there was no interaction until all wells had both components. The plate was then centrifuged gently for 10 seconds, followed by an incubation at 37° C. for 45 minutes. […] Data was analyzed using GraphPad Prism 8.0.
# [2] = biological target: Recombinant Human ENPP-2/Autotaxin (rhENPP-2) (Homo sapiens (Human), UniProt Q13822); experiment: ENPP2 Assay; format: biochemical; conditions: substrate BPNPP, pH 8.5, 37° C. 10 minutes, absorbance at 400 nm
# Experimental: Assay Buffer: 50 mM Tris, 10 mM CaCl2, 5 mM MgCl2, 0.02% Brij-35 (v/v), pH 8.5
# Substrate: 20 mM Bis(p-Nitrophenyl) Phosphate Sodium Salt (BPNPP) (Sigma, Catalog #N3002)
# Enzyme: 0.01 ng/μL Recombinant Human ENPP-2/Autotaxin (rhENPP-2) (R&D Catalog #5255-EN)
# 96-well clear assay plates
# 0 μM. […] PF8380 was used as a positive control for the assay. Data was analyzed using GraphPad Prism 8.0.
# [3] = biological target: T1, Recombinant Human ENPP-1 Protein; format: binding; conditions: SYPRO Orange protein melt
# Experimental: Recombinant Human ENPP-1 Protein (Purified In-House)
# Assay Buffer (1 mM CaCl2, 0.2 mM ZnCl2, 50 mM Tris, pH 9.0)
# 5000×SYPRO Orange (ThermoFisher cat #S6651)
# Each drug was prepared as a 1 Ox solution in the assay buffer and SYPRO Orange was diluted to 10× concentration in water. Wells were set up in duplicate in a 384-well PCR plate as follows: 14 μL assay buffer, 2 μL ENPP1 Inhibitor or DMSO, 2 μL (0.5 μg) ENPP1 protein. Each well was mixed and incubated on ice for 5 minutes. Post incubation, 2 μL of SYPRO Orange was mixed into each well and followed by a gentle centrifugation. The protein melt reaction was run using ViiA7 software with temperatures beginning at 25° C. and increasing by 0.05° C./s to the maximum temperature of 99° C.
# T1 sequence (P22413 whole entry, looked up): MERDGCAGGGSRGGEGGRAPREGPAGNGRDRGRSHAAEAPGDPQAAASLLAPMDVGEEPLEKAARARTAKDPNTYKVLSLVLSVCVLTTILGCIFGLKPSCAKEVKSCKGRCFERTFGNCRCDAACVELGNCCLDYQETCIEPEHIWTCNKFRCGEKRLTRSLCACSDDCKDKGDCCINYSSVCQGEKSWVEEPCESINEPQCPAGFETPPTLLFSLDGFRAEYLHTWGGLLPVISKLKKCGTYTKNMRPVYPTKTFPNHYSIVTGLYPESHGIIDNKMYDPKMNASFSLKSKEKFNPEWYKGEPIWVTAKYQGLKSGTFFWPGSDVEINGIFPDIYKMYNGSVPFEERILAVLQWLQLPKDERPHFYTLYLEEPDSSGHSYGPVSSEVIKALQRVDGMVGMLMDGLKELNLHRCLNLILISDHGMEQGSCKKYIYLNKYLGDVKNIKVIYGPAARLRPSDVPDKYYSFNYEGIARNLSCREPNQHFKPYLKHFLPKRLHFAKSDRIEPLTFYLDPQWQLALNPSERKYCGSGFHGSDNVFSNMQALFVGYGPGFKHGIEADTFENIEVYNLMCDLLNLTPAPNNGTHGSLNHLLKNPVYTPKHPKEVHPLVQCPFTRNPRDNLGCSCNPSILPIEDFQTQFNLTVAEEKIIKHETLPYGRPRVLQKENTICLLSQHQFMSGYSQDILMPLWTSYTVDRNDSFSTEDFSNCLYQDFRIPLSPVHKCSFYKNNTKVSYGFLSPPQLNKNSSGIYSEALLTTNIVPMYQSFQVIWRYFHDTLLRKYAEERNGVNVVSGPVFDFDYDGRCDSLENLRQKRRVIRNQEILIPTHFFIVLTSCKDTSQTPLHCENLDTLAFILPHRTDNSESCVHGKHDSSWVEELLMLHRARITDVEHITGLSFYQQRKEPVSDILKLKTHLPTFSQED
smiles,measurement,setting,value
"COc1cc2ncnc(N3CC4CC(C3)N(S(N)(=O)=O)C4)c2cc1OC (stereo not shown) [Compound 026, 3-(6,7-dimethoxyquinazolin-4-yl)-3,6-diazabicyclo[3.2.1]octane-6-sulfonamide hydrochloride]",IC50,[1]; read-out: IC50,0.118 µM
COc1cc2ncnc(N3CCCN(C(=O)CNS(N)(=O)=O)CC3)c2cc1OC [Compound 065],IC50,[2],> 1 µM
same,IC50,[1]; read-out: IC50,0.00774 µM
same,Thermal Shift @10 uM (dTm (o C.)),[3],$$$ ($$$ >3o C.)
COc1cc2ncnc(CCCCCNS(N)(=O)=O)c2cc1OC [Compound 050],IC50,[2],> 1 µM
same,Thermal Shift @10 uM (dTm (o C.)),[3],$$ ($$ <3o C.)
"COc1cc2ncnc(N3CCCC(CCNS(N)(=O)=O)CC3)c2cc1OC (stereo not shown) [Compound 060, N-(2-(1-(6,7-dimethoxyquinazolin-4-yl)azepan-4-yl)ethyl)sulfamide]",Thermal Shift @10 uM (dTm (o C.)),[3],$$$ ($$$ >3o C.)
COc1cc2ncnc(-c3ccc(NCCNS(N)(=O)=O)nc3)c2cc1OC.Cl [Compound 048],IC50,[2],> 1 µM
same,Thermal Shift @10 uM (dTm (o C.)),[3],$$ ($$ <3o C.)
"COc1cc2ncnc(-c3ccc(CNS(N)(=O)=O)nc3)c2cc1OC [Compound 047, N-((5-(6,7-dimethoxyquinazolin-4-yl)pyridin-2-yl)methyl) sulfamide]",IC50,[2],> 1 µM
same,Thermal Shift @10 uM (dTm (o C.)),[3],$$ ($$ <3o C.)
"COc1cc2ncnc(N3CCCN(S(N)(=O)=O)CC3)c2cc1OC [Compound 015-MES, 4-(6,7-dimethoxyquinazolin-4-yl)-1,4-diazepane-1-sulfonamide methanesulfonate]",IC50,"[1]; methanesulfonate, read-out: IC50",0.00638 µM
COc1cc2ncc(C#N)c(N3CCCC(CCNS(N)(=O)=O)CC3)c2cc1OC (racemic) [Compound 038],IC50,[1],0.00094 µM
COc1cc2ncnc(N3CCCN(C(=O)CNS(N)(=O)=O)CC3)c2cc1OC.Cl [Compound 064],Thermal Shift @10 uM (dTm (o C.)),[3],$$ ($$ <3o C.)
COc1cc2ncnc(OCCCCNS(N)(=O)=O)c2cc1OC [Compound 053],Thermal Shift @10 uM (dTm (o C.)),[3],$$$ ($$$ >3o C.)
COc1cc2ncnc(NCCCCNS(N)(=O)=O)c2cc1OC [Compound 056],IC50,[2],> 1 µM
same,Thermal Shift @10 uM (dTm (o C.)),[3],$$ ($$ <3o C.)
COc1cc2ncnc(N3CCCN(CCNS(N)(=O)=O)CC3)c2cc1OC.Cl [Compound 063],Thermal Shift @10 uM (dTm (o C.)),[3],$$ ($$ <3o C.)
COc1cc2ncnc(N3CCCC(CCNS(N)(=O)=O)CC3)c2cc1OC (stereo not shown) [Compound 049],IC50,[2],> 1 µM
same,Thermal Shift @10 uM (dTm (o C.)),[3],$$$ ($$$ >3o C.)
"COc1cc2ncnc(N3CCCN(CCNS(N)(=O)=O)CC3)c2cc1OC.Cl [Compound 063, (N-(2-(4-(6,7-dimethoxyquinazolin-4-yl)-1,4-diazepan-1-yl)ethyl)sulfamide hydrochloride]",IC50,[1]; read-out: IC50,0.0681 µM
"COc1cc2ncnc(N3CCCN(S(N)(=O)=O)CC3)c2cc1OC.Cl [Compound 015-HCl, 4-(6,7-dimethoxyquinazolin-4-yl)-1,4-diazepane-1-sulfonamide hydrochloride salt]",IC50,[2],> 1 µM
same,IC50,"[1]; hydrochloride salt, read-out: IC50",0.00597 µM
same,Thermal Shift @10 uM (dTm (o C.)),[3],$$$ ($$$ >3o C.)
"COc1cc2c(N3CCCN(S(N)(=O)=O)CC3)ncnc2cc1-c1cn[nH]c1 [Compound 020, 4-(6-methoxy-7-(1H-pyrazol-4-yl)quinazolin-4-yl)-1,4-diazepane-1-sulfonamide]",IC50,[1]; read-out: IC50,0.0997 µM
COc1cc2ncnc(N3CCCN(CCNS(N)(=O)=O)CC3)c2cc1OC [Compound 062],IC50,[2],> 1 µM
same,Thermal Shift @10 uM (dTm (o C.)),[3],$$ ($$ <3o C.)
"COc1cc2ncnc(N3CCCN(S(N)(=O)=O)CC3)c2cc1OC [Compound 015, 4-(6,7-dimethoxyquinazolin-4-yl)-1,4-diazepane-1-sulfonamide]",IC50,[1]; read-out: IC50,0.0324 µM
"COc1cc2ncc(C#N)c(N3CCCC(NS(N)(=O)=O)CC3)c2cc1OC (stereo not shown) [Compound 042, N-(1-(3-cyano-6,7-dimethoxyquinolin-4-yl)azepan-4-yl)sulfamoylamine]",IC50,[1]; read-out: IC50,0.0405 µM
COc1cc2ncnc(OCCCCCNS(N)(=O)=O)c2cc1OC [Compound 054],Thermal Shift @10 uM (dTm (o C.)),[3],$$ ($$ <3o C.)
"COc1cc2ncnc(N3CCN(S(N)(=O)=O)CC(F)(F)C3)c2cc1OC [Compound 029, 4-(6,7-dimethoxyquinazolin-4-yl)-6,6-difluoro-1,4-diazepane-1-sulfonamide hydrochloride]",IC50,[1]; read-out: IC50,0.00121 µM
"COc1cc2ncnc(NCCCNS(N)(=O)=O)c2cc1OC [Compound 055, N-(3-((6,7-dimethoxyquinazolin-4-yl)amino)propyl) sulfamide hydrochloride]",Thermal Shift @10 uM (dTm (o C.)),[3],$$ ($$ <3o C.)
"COc1cc2ncnc(N(C)CCCCCNS(N)(=O)=O)c2cc1OC [Compound 061, N-(5-((6,7-dimethoxyquinazolin-4-yl) (methyl)amino)pentyl) sulfamide]",Thermal Shift @10 uM (dTm (o C.)),[3],$$ ($$ <3o C.)
"COc1cc2ncnc(N3CCCN(C(=O)CNS(N)(=O)=O)CC3)c2cc1OC.Cl [Compound 064, (N-(2-(4-(6,7-dimethoxyquinazolin-4-yl)-1,4-diazepan-1-yl)-2-oxoethyl)sulfamide hydrochloride]",IC50,[1],0.072 µM
COc1cc2ncnc(NCCCCCNS(N)(=O)=O)c2cc1OC [Compound 057],Thermal Shift @10 uM (dTm (o C.)),[3],$$ ($$ <3o C.)
"COc1cc2ncnc(SCCCCNS(N)(=O)=O)c2cc1OC [Compound 058, N-(4-((6,7-dimethoxyquinazolin-4-yl)thio)butyl) sulfamide hydrochloride]",Thermal Shift @10 uM (dTm (o C.)),[3],$$$ ($$$ >3o C.)
"COc1ccc2ncnc(N3CCCN(S(N)(=O)=O)CC3)c2c1 [Compound 022, 4-(6-methoxyquinazolin-4-yl)-1,4-diazepane-1-sulfonamide]",IC50,[1]; read-out: IC50,0.116 µM

# — US11591313B2, “Inhibitors of ectonucleotide pyrophosphatase/phosphodiesterase 1 (ENPP1) and methods of use thereof” (Stingray Therapeutics, Inc., priority 2020, dated 2023)
